From PMC12417622 (Biopharmaceutics & Drug Disposition, 2025)
Like-named read-outs stand apart in the source and are kept apart here.

How the values were obtained:
[1] = molecular target: T1, hOAT3 (Homo sapiens, UniProt Q8TCC7); experiment: Uptake of 6-CF in HEK-pBK and HEK-hOAT3 cells and its inhibition by probenecid; format: cell-based; set-up: expressed in transfected cells; host or cells: HEK293 (HEK-hOAT3), gift of Dr. Atsushi Yonezawa, Kyoto University Hospital; mock control HEK-pBK (pBKCMV vector); conditions: 5 μM 6-CF, 2 min, 37°C
T1 sequence (Q8TCC7 1-542): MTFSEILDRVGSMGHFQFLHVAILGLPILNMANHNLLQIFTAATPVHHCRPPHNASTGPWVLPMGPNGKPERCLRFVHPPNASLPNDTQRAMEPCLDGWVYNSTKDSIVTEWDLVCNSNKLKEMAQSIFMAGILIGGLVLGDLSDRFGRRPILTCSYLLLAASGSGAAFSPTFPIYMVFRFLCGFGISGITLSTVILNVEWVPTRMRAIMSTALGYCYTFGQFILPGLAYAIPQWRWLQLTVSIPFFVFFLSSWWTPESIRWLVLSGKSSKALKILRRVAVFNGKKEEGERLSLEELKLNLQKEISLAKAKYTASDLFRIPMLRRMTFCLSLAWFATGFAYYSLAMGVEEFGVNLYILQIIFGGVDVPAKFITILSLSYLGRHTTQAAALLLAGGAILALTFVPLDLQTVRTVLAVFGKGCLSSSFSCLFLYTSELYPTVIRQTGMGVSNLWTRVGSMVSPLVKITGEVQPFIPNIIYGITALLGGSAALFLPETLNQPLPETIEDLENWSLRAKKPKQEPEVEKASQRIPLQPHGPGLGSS
Experimental: The cells were incubated for 2 min at 37°C with 5 µM 6‐CF (pH 7.4) in the absence or presence of probenecid (100 µM).

[2] = molecular target: T1, hOAT3; set-up: expressed in transfected cells; host or cells: HEK293 (HEK-hOAT3), gift of Dr. Atsushi Yonezawa, Kyoto University Hospital; mock control HEK-pBK (pBKCMV vector); conditions: cited from earlier work; for Ki: read-out: Ki against hOAT3
[3] = set-up: method as in Bleyer [1978]; conditions: within 30 h of administration; ref Bleyer [1978]; cited from earlier work
[4] = Pharmacokinetics of methotrexate after intravenous administration with and without febuxostat in rats; format: in vivo, rat; conditions: for Vd / half-life / k el / AUC(0-t) / clearance: male, Wistar, rat, plasma, iv, 2 mg/kg, methotrexate 2 mg/kg i.v., mean ± S.D.; for Vd / half-life / k el: n = 4; for AUC(0-t): n = 4, read-out: AUC0–90 min (converted); for clearance: n = 4, read-out: CLtot
Source text: Nine‐week‐old male Wistar rats (SLC Japan Co., Shizuoka, Japan) were used for the pharmacokinetics study. All animal procedures were approved by the Animal Experiments Committee of The University of Osaka (No. 03‐018‐000) and conducted in accordance with the Japanese Law for the Protection and Management of Animals, the Standards Relating to the Care and Management of Laboratory Animals and Relief of Pain, and other relevant regulations and guidelines for animal experimentation. The rats were anesthetized with an intraperitoneal injection of a mixture of medetomidine, midazolam, and butorphanol at doses of 0.38, 2.0, and 2.5 mg/kg, respectively. Polyethylene catheters were implanted into the femoral vein and femoral artery to administer the drug and facilitate frequent blood collection. […] The area under the plasma concentration–time curve from 0 to 90 min (AUC0–90 min) was calculated using the trapezoidal rule. Moreover, the systemic clearance (CLtot), elimination rate constant from the central compartment (Kel), distribution volume of the central compartment (Vd), and half‐life (T1/2) were calculated according to the procedures for 2‐compartmental analysis.
(§1) The entire LC gradient was 16 min.

[5] = system: rOAT3; set-up: method as in Nozaki et al. [2004]; conditions: rat kidney slices; ref Nozaki et al. [2004]; cited from earlier work
[6] = molecular target: T1, hOAT3; conditions: 10 μM methotrexate, 2, 5, 10 and 15 min, 37°C, all time points
Experimental: These cells were cultured in complete medium consisting of Medium 199 (Life Technologies, Carlsbad, CA) supplemented with 10% fetal bovine serum containing G418 (0.5 mg/mL; FUJIFILM WAKO Pure Chemical) and were used between passage numbers 95 and 115. These cells were maintained at 37°C under 5% CO2 in a humidified atmosphere.
The cells (12 × 10^5 cells/dish) were seeded in 3.5 cm dishes with culture medium in the absence of G418. After 48 h of culture, cell monolayers were utilized for uptake study. […] The composition of the incubation medium was as follows: 145 mM NaCl, 3 mM KCl, 1 mM CaCl2, 0.5 mM MgCl2, 5 mM D‐glucose, and 5 mM HEPES (pH 7.4). […] To assess intracellular 6‐CF accumulation, the cells were solubilized in 1 N NaOH and fluorescence was measured using a fluorescence spectrophotometer (SH‐9000lab, CORONA, Ibaraki, Japan) at 495 nm excitation/517 nm emission. The protein content of the solubilized cells was measured using a BCA protein assay kit (Thermo Fisher Scientific, Waltham, MA).
The UPLC‐MS/MS system was applied with the ACQUITY HPLC H‐class/ACQUITY TQD system with electrospray ionization (Waters, Milford, MA). 10 μL of 100 ng/mL pemetrexed, utilized as an internal standard (IS), was added to the samples (100 μL). The samples (10 μL) were then subjected to UPLC‐MS/MS. […]

[7] = Cmax of febuxostat after oral administration in human; format: in vivo; conditions: 40–120 mg febuxostat orally, estimated from Cmax and protein binding
[8] = set-up: method as in Zhang et al. [2014]; conditions: human, 40–120 mg febuxostat orally; ref Zhang et al. [2014]; cited from earlier work
[9] = set-up: method as in review report of febuxostat (Feburic Tablet); conditions: rats, 5 min after febuxostat 1 mg/kg i.v.; ref review report of febuxostat (Feburic Tablet); cited from earlier work
[10] = molecular target: T1, hOAT3; experiment: Inhibition of hOAT3-mediated methotrexate transport by febuxostat in HEK-hOAT3 cells (inhibition plot, Dixon plot); format: cell-based; set-up: expressed in transfected cells; host or cells: HEK293 (HEK-hOAT3), gift of Dr. Atsushi Yonezawa, Kyoto University Hospital; mock control HEK-pBK (pBKCMV vector)
Experimental: as §1

[11] = set-up: method as in Yu et al. [2023]; conditions: rats; ref Yu et al. [2023]; cited from earlier work
[12] = substrate: CN(Cc1cnc2nc(N)nc(N)c2n1)c1ccc(C(=O)N[C@@H](CCC(=O)O)C(=O)O)cc1; experiment: cells, lysate or membranes named; conditions: other: 2 min, 37°C, pH 7.4, uptake in HEK-pBK subtracted from HEK-hOAT3, mean ± S.E.
[13] = HEK-hOAT3 cells, estron-3-sulfate as substrate, ref Tang et al. [2022]

For `CCCN(CCC)S(=O)(=O)c1ccc(C(=O)O)cc1` [probenecid], the “Effect on uptake of 6-CF in HEK-hOAT3 cells” value ([1]; 100 μM probenecid) was “potently inhibited”.

For `Cc1nc(-c2ccc(OCC(C)C)c(C#N)c2)sc1C(=O)O[C@@H]1O[C@H](C(=O)O)[C@@H](O)[C@H](O)[C@H]1O` [febuxostat acyl‐β‐D‐glucuronide], the “inhibitory type against hOAT3” value [2, 13] is listed as “competitive” and the Ki [2, 13] is listed as 6110 nM.

For `CN(Cc1cnc2nc(N)nc(N)c2n1)c1ccc(C(=O)N[C@@H](CCC(=O)O)C(=O)O)cc1` [methotrexate], the “excreted in urine as unchanged drug” value [3] is listed as “approximately 95%”, the Vd ([4]; febuxostat (+) 1 mg/kg i.v.) is listed as 0.433 ± 0.088 L/kg and the half-life ([4]; febuxostat (+) 1 mg/kg i.v.) is listed as 14 ± 4.6 min. The k el ([4]; febuxostat (+) 1 mg/kg i.v.) was 0.000833 s⁻¹, the AUC(0-t) ([4]; febuxostat (+) 1 mg/kg i.v.) was 4350 ng·h/mL and the clearance ([4]; febuxostat (+) 1 mg/kg i.v.) was 8.02 ± 2.03 mL/min/kg. For the same molecule, the Vd ([4]; febuxostat (−)) was 0.378 ± 0.061 L/kg, the half-life ([4]; febuxostat (−)) was 6.4 ± 1.4 min and the k el ([4]; febuxostat (−)) was 0.00183 s⁻¹. For the same molecule, the AUC(0-t) ([4]; febuxostat (−)) was 2170 ng·h/mL, the clearance ([4]; febuxostat (−)) was 15.9 ± 3.56 mL/min/kg and the “Plasma concentration of methotrexate with concomitant febuxostat” value ([4]; methotrexate 2 mg/kg i.v. with febuxostat 1 mg/kg i.v. vs without, at 15, 30, 60 and 90 min) was “significantly increased”. For the same molecule, the “share of renal basolateral uptake for which rOAT3 is responsible” value [5] was “approximately 50%” and the “Uptake in HEK-hOAT3 cells compared with HEK-pBK cells” value [6] was “significantly higher”.

In the case of `O=C(O)c1ccc(C(=O)O)c(-c2c3ccc(=O)cc-3oc3cc(O)ccc23)c1` [6‐CF, 6‐carboxyfluorescein], the “Uptake in HEK-hOAT3 cells relative to HEK-pBK cells” value ([1]; pH 7.4) is reported as “approximately 17.4 fold”.

In the case of `Cc1nc(-c2ccc(OCC(C)C)c(C#N)c2)sc1C(=O)O` [febuxostat], the “unbound Cmax (clinical concentration)” value [7] is listed as 0.12 to 0.30 µM, the Cmax [8] is listed as 5.3 to 13.5 µM and the “plasma concentration of febuxostat” value [9] is listed as “approximately 24.1 μM”. For the same molecule, the Ki ([2]; ref Tang et al. ([2022])) was 550 ± 150 nM, the IC50 [10] was 650 ± 130 nM and the Ki [10] was 630 ± 10 nM. For the same molecule, the “inhibitory type against hOAT3-mediated transport of methotrexate” value ([10]; Dixon plot, HEK-hOAT3 cells) was “noncompetitive”, the “ratio of unbound Cmax to Ki value” ([10]; human unbound Cmax 0.12–0.30 μM, Ki against hOAT3 0.63 μM) was 0.19–0.48 and the protein binding [11] was 98.4%.

B1: hOAT3 (Homo sapiens) (protein)
chain: T1 sequence (Q8TCC7 1-542)
B1 showed a Km [12] of 46.4 ± 9.2 µM and a Vmax [12] of 287 ± 26 pmol/mg protein/min.
